Assay results from the supplement of paper PMC10307832.

Experiments:
Test in all cases: relative viability (nuclei count vs DMSO), 5 days (fraction); higher = more cells survive
[1] = compound: CC(C)(C)c1nc(-c2cccc(NS(=O)(=O)c3c(F)cccc3F)c2F)c(-c2ccnc(N)n2)s1 [Dabrafenib] + COc1cccc2cc(-c3nc([C@H]4CC[C@H](C(=O)O)CC4)n4ncnc(N)c34)[nH]c12 [OSI-027] (partner 0.5 µM)
Summary of the method: (§1)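 Lung cancer cell lines were seeded in 1536-well plates and dosed by pin tool the next day, with either a single drug or a fixed anchor-drug dose combined with five library-drug doses (not always all listed) spaced in √10 steps. Five days later, one step fixed the cells and stained their nuclei (final 0.05% Triton X-100, 1% formaldehyde, 1 ug/ml Hoechst), and nuclei were counted on 4× images. Relative viability is the nuclei count in treated wells divided by the count in vehicle wells, and each value is the median of duplicate plates.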

[2] = compound: CC(C)(C)c1nc(-c2cccc(NS(=O)(=O)c3c(F)cccc3F)c2F)c(-c2ccnc(N)n2)s1 [Dabrafenib] + Cc1cc(Nc2cc(N3CCN(C)CC3)nc(Sc3ccc(NC(=O)C4CC4)cc3)n2)n[nH]1 [Tozasertib] (partner 0.1 µM)
Summary of the method: as §1

[3] = compound: CC(C)(C)c1nc(-c2cccc(NS(=O)(=O)c3c(F)cccc3F)c2F)c(-c2ccnc(N)n2)s1 [Dabrafenib] + NC(=O)Nc1cc(-c2cccc(F)c2)sc1C(=O)N[C@H]1CCCNC1 [AZD7762] (partner 0.2 µM)
Summary of the method: as §1

[4] = compound: NC(=O)c1ccc(N(C(N)=O)c2c(F)cccc2F)nc1-c1ccc(F)cc1F [VX-702] + Cc1nc(NC(=O)N2CCC[C@H]2C(N)=O)sc1-c1ccnc(C(C)(C)C(F)(F)F)c1 [Alpelisib] (partner 2 µM)
Summary of the method: as §1

Cell Line | relative viability ([1]; first compound 0.009487 µM) | relative viability ([1]; first compound 0.03 µM) | relative viability ([1]; first compound 0.09487 µM) | relative viability ([1]; first compound 0.3 µM) | relative viability ([2]; first compound 0.009487 µM) | relative viability ([2]; first compound 0.03 µM) | relative viability ([2]; first compound 0.09487 µM) | relative viability ([2]; first compound 0.3 µM) | relative viability ([3]; first compound 0.003 µM) | relative viability ([3]; first compound 0.009487 µM) | relative viability ([3]; first compound 0.09487 µM) | relative viability ([3]; first compound 0.3 µM) | relative viability ([4]; first compound 0.02 µM) | relative viability ([4]; first compound 0.2 µM) | relative viability ([4]; first compound 0.6325 µM) | relative viability ([4]; first compound 2 µM) | relative viability ([1]; first compound 0.003 µM) | relative viability ([2]; first compound 0.003 µM) | relative viability ([3]; first compound 0.03 µM)
NCI-H727 | 0.395 | 0.677 | 0.568 | 0.643 | 0.754 | 0.654 | 0.667 | 0.793 | 0.472 | 0.459 | 0.492 | 0.669 | 0.504 | 0.552 | 0.621 | 0.634 | – | – | –
NCI-H838 | 0.483 | 0.388 | 0.405 | 0.412 | 0.34 | 0.239 | 0.255 | 0.258 | 0.993 | 0.885 | 0.889 | 0.89 | 0.965 | 0.893 | 0.95 | 1.23 | 0.339 | 0.29 | 0.91
NCI-H1355 | 0.477 | 0.34 | 0.416 | 0.44 | 0.677 | 0.519 | 0.439 | 0.577 | – | 0.814 | 0.655 | 0.803 | 0.778 | 0.807 | 0.799 | 0.876 | – | – | 0.669
NCI-H1395 | 0.692 | 0.594 | 0.583 | 0.589 | 0.633 | 0.762 | 0.667 | 0.648 | – | 0.385 | 0.424 | 0.412 | 1.2 | 1.11 | 0.967 | 1.38 | 0.377 | 0.718 | 0.402
NCI-H1437 | 0.849 | 1.04 | 0.922 | 0.878 | 0.385 | 0.412 | 0.409 | 0.416 | 1.09 | 1.16 | 1.11 | 1.18 | 0.943 | 0.858 | 0.911 | 1.14 | 0.926 | 0.496 | 1.19
NCI-H1651 | 0.666 | 0.748 | 0.714 | 0.736 | 0.763 | 0.57 | 0.668 | 0.679 | 0.25 | 0.466 | 0.43 | 0.451 | 0.928 | 0.948 | 0.882 | 1.16 | 0.724 | 0.741 | 0.461
NCI-H1666 | 0.869 | 0.833 | 0.797 | 0.968 | 0.637 | 0.678 | 0.672 | 0.672 | 0.592 | 0.879 | 0.778 | 0.937 | 1 | 0.862 | 0.88 | 0.909 | 0.805 | 0.562 | 0.742
NCI-H1734 | 0.655 | 0.471 | 0.496 | 0.502 | 0.248 | 0.251 | 0.312 | 0.271 | – | 0.587 | 0.452 | 0.378 | 0.626 | 0.596 | 0.588 | 0.559 | – | – | 0.5
NCI-H1755 | 0.672 | 0.591 | 0.661 | 0.701 | 0.659 | 0.539 | 0.559 | 0.614 | 0.331 | 0.446 | 0.435 | 0.471 | 0.907 | 0.891 | 0.925 | 1.01 | 0.668 | 0.555 | 0.353
NCI-H1793 | 0.393 | – | – | 0.309 | 0.464 | – | – | 0.293 | – | 0.489 | 0.493 | 0.434 | 0.822 | 0.583 | 0.545 | 0.959 | – | – | –
NCI-H1915 | 0.565 | 0.486 | 0.37 | 0.381 | 0.458 | 0.391 | 0.328 | 0.41 | 0.712 | 0.653 | 0.268 | 0.282 | 1.04 | 1.05 | 1.1 | 1.15 | 0.572 | 0.46 | 0.368
NCI-H1944 | 0.433 | 0.39 | 0.505 | 0.439 | 0.262 | 0.233 | 0.254 | 0.239 | 0.219 | 0.537 | 0.457 | 0.555 | 0.76 | 0.775 | 0.818 | 0.605 | 0.356 | 0.252 | 0.397
NCI-H1975 | 0.728 | 0.805 | 0.535 | 0.581 | 0.769 | 0.714 | 0.659 | 0.689 | 0.481 | 0.788 | 0.505 | 0.78 | 0.738 | 0.664 | 0.716 | 0.869 | 0.657 | 0.778 | 0.734
NCI-H1993 | 0.498 | 0.433 | 0.565 | 0.56 | 0.586 | 0.504 | 0.571 | 0.606 | 0.555 | 0.968 | 0.716 | 0.826 | 0.665 | 0.74 | 0.628 | 0.674 | 0.468 | 0.484 | 0.792
NCI-H2085 | 1.06 | 0.675 | 0.616 | 0.859 | 0.908 | 0.734 | 0.75 | 0.706 | 0.724 | 1.11 | 0.874 | 1.01 | 1.08 | 0.838 | 0.959 | 0.955 | 0.355 | 0.76 | 1.01
NCI-H2087 | 0.541 | 0.682 | 0.622 | 0.454 | 0.306 | 0.254 | 0.302 | 0.264 | – | 1.24 | 0.928 | 1 | 1.2 | 1.04 | 1.04 | 1.19 | – | – | 1.11
